Measurements: ChEMBL document CHEMBL4507285, “Data for DCP probe MRL-SYKi” (2021)

What was measured:
[1] = molecular target: Serine/threonine-protein kinase Nek1 (Homo sapiens) (UniProt Q96PY6); conditions: Compound concentration 100.0 nM
[2] = molecular target: Tyrosine-protein kinase receptor UFO (Homo sapiens) (UniProt P30530); conditions: Compound concentration 100.0 nM
[3] = molecular target: Sodium-dependent serotonin transporter (Homo sapiens) (UniProt P31645); conditions: Compound concentration 10.0 uM
[4] = molecular target: Megakaryocyte-associated tyrosine-protein kinase (Homo sapiens) (UniProt P42679); conditions: Compound concentration 100.0 nM
[5] = molecular target: Serine/threonine-protein kinase RIO2 (Homo sapiens) (UniProt Q9BVS4); conditions: Compound concentration 100.0 nM
[6] = molecular target: Dual specificity tyrosine-phosphorylation-regulated kinase 2 (Homo sapiens) (UniProt Q92630); conditions: Compound concentration 100.0 nM
Dual specificity tyrosine-phosphorylation-regulated kinase 2 (Homo sapiens), sequence (Q92630 whole entry): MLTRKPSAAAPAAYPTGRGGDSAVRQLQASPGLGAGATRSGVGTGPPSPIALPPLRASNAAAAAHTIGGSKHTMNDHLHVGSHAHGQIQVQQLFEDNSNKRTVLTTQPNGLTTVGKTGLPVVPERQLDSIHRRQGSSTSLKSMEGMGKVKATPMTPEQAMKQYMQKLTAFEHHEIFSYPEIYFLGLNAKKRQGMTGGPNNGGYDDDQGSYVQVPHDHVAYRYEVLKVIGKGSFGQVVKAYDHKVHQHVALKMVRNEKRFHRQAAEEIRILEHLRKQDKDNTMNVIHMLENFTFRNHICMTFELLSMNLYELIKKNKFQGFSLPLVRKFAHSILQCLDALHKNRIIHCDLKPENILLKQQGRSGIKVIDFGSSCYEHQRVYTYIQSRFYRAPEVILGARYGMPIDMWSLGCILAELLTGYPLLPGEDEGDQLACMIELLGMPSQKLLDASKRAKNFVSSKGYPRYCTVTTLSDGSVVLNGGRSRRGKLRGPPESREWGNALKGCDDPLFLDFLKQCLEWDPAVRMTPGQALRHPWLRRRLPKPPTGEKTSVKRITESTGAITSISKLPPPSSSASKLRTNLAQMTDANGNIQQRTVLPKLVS

[7] = molecular target: Homeodomain-interacting protein kinase 3 (Homo sapiens) (UniProt Q9H422); conditions: Compound concentration 100.0 nM
[8] = molecular target: Tyrosine-protein kinase Lyn (Homo sapiens) (UniProt P07948); conditions: Compound concentration 100.0 nM
[9] = tested on: Receptor-type tyrosine-protein kinase FLT3 (Homo sapiens), P36888 [UNDEFINED MUTATION]; conditions: Compound concentration 100.0 nM
[10] = molecular target: Ephrin type-A receptor 8 (Homo sapiens) (UniProt P29322); conditions: Compound concentration 100.0 nM
[11] = molecular target: Serine/threonine-protein kinase RIO1 (Homo sapiens) (UniProt Q9BRS2); conditions: Compound concentration 100.0 nM
[12] = tested on: Fibroblast growth factor receptor 3 (Homo sapiens), P22607 [G697C]; conditions: Compound concentration 100.0 nM
[13] = molecular target: Protein-tyrosine kinase 2-beta (Homo sapiens) (UniProt Q14289); conditions: Compound concentration 100.0 nM
[14] = molecular target: Phosphatidylinositol 4-phosphate 3-kinase C2 domain-containing subunit beta (Homo sapiens) (UniProt O00750); conditions: Compound concentration 100.0 nM
[15] = molecular target: Mitogen-activated protein kinase 7 (Homo sapiens) (UniProt Q13164); conditions: Compound concentration 100.0 nM
[16] = molecular target: Mitogen-activated protein kinase 13 (Homo sapiens) (UniProt O15264); conditions: Compound concentration 100.0 nM
Mitogen-activated protein kinase 13 (Homo sapiens), sequence (O15264 whole entry): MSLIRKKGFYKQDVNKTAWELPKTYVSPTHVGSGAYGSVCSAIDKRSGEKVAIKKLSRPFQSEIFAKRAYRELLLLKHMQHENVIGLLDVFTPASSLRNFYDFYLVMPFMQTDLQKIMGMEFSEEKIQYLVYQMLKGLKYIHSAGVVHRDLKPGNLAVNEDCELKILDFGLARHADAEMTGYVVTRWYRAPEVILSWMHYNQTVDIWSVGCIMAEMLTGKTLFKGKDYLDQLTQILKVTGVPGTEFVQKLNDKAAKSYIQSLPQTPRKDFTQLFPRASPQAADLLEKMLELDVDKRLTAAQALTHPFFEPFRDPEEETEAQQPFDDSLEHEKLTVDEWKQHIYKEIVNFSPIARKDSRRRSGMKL

[17] = molecular target: Serine/threonine-protein kinase 32A (Homo sapiens) (UniProt Q8WU08); conditions: Compound concentration 100.0 nM
Serine/threonine-protein kinase 32A (Homo sapiens), sequence (Q8WU08 whole entry): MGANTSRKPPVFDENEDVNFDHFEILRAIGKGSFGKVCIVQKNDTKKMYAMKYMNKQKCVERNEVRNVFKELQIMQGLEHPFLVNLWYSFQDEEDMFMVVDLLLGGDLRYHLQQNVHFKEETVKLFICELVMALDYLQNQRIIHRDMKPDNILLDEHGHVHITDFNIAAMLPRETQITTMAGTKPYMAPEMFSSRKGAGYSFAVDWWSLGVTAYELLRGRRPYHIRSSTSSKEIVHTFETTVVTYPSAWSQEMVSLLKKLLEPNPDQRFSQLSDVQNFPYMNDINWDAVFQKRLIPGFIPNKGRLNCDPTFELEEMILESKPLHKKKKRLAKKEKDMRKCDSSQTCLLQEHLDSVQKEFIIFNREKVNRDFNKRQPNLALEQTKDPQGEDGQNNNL

[18] = molecular target: D(1A) dopamine receptor (Homo sapiens) (UniProt P21728); conditions: Compound concentration 10.0 uM
[19] = molecular target: Focal adhesion kinase 1 (Homo sapiens) (UniProt Q05397); conditions: Compound concentration 100.0 nM
[20] = molecular target: Serine/threonine-protein kinase Nek10 (Homo sapiens) (UniProt Q6ZWH5); conditions: Compound concentration 100.0 nM
Serine/threonine-protein kinase Nek10 (Homo sapiens), sequence (Q6ZWH5 whole entry): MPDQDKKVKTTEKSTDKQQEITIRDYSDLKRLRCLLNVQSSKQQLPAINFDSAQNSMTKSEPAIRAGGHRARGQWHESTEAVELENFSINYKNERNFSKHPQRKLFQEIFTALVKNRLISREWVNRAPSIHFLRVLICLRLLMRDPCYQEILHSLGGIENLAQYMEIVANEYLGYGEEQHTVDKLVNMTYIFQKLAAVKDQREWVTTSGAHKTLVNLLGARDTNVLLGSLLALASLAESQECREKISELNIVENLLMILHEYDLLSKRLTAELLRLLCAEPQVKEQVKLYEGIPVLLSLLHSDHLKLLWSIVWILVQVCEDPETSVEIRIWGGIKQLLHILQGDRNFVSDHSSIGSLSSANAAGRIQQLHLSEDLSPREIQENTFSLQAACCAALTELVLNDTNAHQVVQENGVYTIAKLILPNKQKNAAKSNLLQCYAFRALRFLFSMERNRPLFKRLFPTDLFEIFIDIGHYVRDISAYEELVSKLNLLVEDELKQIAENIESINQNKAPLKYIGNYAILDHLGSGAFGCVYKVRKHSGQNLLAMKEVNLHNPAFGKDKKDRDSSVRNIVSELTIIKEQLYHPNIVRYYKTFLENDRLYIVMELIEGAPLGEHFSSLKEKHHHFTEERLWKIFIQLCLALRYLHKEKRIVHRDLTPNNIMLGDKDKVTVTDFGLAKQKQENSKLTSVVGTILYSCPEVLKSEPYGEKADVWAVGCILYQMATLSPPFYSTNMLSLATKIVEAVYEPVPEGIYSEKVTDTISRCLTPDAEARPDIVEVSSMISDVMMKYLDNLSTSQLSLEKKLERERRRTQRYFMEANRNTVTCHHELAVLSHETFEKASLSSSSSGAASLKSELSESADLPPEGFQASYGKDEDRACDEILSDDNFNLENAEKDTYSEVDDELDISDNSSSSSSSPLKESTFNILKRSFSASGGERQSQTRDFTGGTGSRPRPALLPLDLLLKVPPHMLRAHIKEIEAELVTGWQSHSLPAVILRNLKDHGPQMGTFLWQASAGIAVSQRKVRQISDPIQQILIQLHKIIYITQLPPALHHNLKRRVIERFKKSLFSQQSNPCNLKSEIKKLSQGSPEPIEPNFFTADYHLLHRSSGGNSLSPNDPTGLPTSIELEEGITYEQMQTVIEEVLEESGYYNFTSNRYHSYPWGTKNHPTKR

[21] = molecular target: Mitogen-activated protein kinase 4 (Homo sapiens) (UniProt P31152); conditions: Compound concentration 100.0 nM
[22] = molecular target: GABA-A receptor; anion channel (Rattus norvegicus) (UniProt O09028+P15431+P18506+P18508+P19969+P20236+P23574+P23576+P28471+P28473+P30191+P62813+P63079+P63138+Q91ZM7+Q9ES14); conditions: Compound concentration 10.0 uM
[23] = molecular target: Myosin-IIIa (Homo sapiens) (UniProt Q8NEV4); conditions: Compound concentration 100.0 nM
[24] = molecular target: Rho-associated protein kinase 2 (Homo sapiens) (UniProt O75116); conditions: Compound concentration 100.0 nM
[25] = molecular target: Serine/threonine-protein kinase PLK4 (Homo sapiens) (UniProt O00444); conditions: Compound concentration 100.0 nM
[26] = molecular target: Serine/threonine-protein kinase 3 (Homo sapiens) (UniProt Q13188); conditions: Compound concentration 100.0 nM
[27] = molecular target: Phosphatidylinositol 4-kinase beta (Homo sapiens) (UniProt Q9UBF8); conditions: Compound concentration 100.0 nM
[28] = molecular target: Mitogen-activated protein kinase kinase kinase 12 (Homo sapiens) (UniProt Q12852); conditions: Compound concentration 100.0 nM
Mitogen-activated protein kinase kinase kinase 12 (Homo sapiens), sequence (Q12852 whole entry): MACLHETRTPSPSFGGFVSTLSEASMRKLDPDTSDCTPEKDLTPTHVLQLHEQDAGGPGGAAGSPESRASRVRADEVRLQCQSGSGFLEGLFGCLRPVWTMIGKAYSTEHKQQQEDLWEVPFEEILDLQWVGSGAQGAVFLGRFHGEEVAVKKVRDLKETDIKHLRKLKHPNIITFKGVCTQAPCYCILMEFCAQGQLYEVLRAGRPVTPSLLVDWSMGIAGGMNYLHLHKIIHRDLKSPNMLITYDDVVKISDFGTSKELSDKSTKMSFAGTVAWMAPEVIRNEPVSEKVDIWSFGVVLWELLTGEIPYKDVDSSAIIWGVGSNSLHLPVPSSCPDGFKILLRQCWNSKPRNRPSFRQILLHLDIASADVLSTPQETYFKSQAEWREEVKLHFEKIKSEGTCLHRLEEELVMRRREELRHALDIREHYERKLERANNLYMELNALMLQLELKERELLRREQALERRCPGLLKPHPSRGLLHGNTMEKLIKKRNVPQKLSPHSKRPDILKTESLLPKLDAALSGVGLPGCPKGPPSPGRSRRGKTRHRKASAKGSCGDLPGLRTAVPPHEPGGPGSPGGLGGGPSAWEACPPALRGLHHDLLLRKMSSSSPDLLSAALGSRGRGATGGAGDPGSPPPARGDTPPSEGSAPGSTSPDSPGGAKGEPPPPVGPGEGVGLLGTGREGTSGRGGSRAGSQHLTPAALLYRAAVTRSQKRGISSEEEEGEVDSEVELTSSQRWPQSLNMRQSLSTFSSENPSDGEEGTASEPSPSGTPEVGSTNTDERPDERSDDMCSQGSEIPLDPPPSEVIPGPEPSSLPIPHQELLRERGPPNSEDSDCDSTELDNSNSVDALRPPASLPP

[29] = molecular target: Mu-type opioid receptor (Homo sapiens) (UniProt P35372); conditions: Compound concentration 10.0 uM
[30] = tested on: Phosphatidylinositol 4,5-bisphosphate 3-kinase catalytic subunit alpha isoform (Homo sapiens), P42336 [E545A]; conditions: Compound concentration 100.0 nM
[31] = molecular target: Serine/threonine-protein kinase STK11 (Homo sapiens) (UniProt Q15831); conditions: Compound concentration 100.0 nM
[32] = molecular target: Muscarinic acetylcholine receptor M2 (Homo sapiens) (UniProt P08172); conditions: Compound concentration 10.0 uM
[33] = molecular target: cAMP-dependent protein kinase catalytic subunit alpha (Homo sapiens) (UniProt P17612); conditions: Compound concentration 100.0 nM
[34] = tested on: Epidermal growth factor receptor (Homo sapiens), P00533 [L858R]; conditions: Compound concentration 100.0 nM
[35] = molecular target: Serine/threonine-protein kinase Nek5 (Homo sapiens) (UniProt Q6P3R8); conditions: Compound concentration 100.0 nM
[36] = molecular target: LIM domain kinase 2 (Homo sapiens) (UniProt P53671); conditions: Compound concentration 100.0 nM
LIM domain kinase 2 (Homo sapiens), sequence (P53671 whole entry, looked up, the tested form may be a part): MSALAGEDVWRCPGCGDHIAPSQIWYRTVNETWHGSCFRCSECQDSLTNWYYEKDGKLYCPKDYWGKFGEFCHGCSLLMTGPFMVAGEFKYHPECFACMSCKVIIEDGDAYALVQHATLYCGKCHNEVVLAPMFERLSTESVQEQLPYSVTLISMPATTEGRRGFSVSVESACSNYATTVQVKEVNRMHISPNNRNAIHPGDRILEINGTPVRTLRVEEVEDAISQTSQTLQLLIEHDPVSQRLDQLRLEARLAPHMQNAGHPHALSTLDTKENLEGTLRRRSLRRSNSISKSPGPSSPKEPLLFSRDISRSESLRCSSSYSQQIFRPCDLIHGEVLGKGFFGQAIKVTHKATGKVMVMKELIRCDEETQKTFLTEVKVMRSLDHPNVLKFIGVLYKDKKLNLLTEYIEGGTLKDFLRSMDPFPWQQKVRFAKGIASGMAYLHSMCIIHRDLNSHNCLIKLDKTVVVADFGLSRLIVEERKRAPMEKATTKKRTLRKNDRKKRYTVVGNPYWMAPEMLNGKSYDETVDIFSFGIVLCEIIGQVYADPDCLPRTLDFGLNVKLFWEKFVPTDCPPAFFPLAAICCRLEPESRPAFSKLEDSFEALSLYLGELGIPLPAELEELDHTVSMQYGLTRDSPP

[37] = molecular target: 5'-AMP-activated protein kinase catalytic subunit alpha-2 (Homo sapiens) (UniProt P54646); conditions: Compound concentration 100.0 nM
[38] = molecular target: Vascular endothelial growth factor receptor 1 (Homo sapiens) (UniProt P17948); conditions: Compound concentration 100.0 nM
[39] = molecular target: Tyrosine-protein kinase JAK3 (Homo sapiens) (UniProt P52333); conditions: Compound concentration 100.0 nM
[40] = molecular target: Cyclin-dependent kinase-like 2 (Homo sapiens) (UniProt Q92772); conditions: Compound concentration 100.0 nM
[41] = molecular target: Serine/threonine-protein kinase 16 (Homo sapiens) (UniProt O75716); conditions: Compound concentration 100.0 nM
[42] = molecular target: Beta-adrenergic receptor kinase 1 (Homo sapiens) (UniProt P25098); conditions: Compound concentration 100.0 nM
[43] = molecular target: Histamine H3 receptor (Homo sapiens) (UniProt Q9Y5N1); conditions: Compound concentration 10.0 uM
[44] = molecular target: Fibroblast growth factor receptor 4 (Homo sapiens) (UniProt P22455); conditions: Compound concentration 100.0 nM

Tyrosine-protein kinase receptor UFO (Homo sapiens), sequence (P30530 whole entry): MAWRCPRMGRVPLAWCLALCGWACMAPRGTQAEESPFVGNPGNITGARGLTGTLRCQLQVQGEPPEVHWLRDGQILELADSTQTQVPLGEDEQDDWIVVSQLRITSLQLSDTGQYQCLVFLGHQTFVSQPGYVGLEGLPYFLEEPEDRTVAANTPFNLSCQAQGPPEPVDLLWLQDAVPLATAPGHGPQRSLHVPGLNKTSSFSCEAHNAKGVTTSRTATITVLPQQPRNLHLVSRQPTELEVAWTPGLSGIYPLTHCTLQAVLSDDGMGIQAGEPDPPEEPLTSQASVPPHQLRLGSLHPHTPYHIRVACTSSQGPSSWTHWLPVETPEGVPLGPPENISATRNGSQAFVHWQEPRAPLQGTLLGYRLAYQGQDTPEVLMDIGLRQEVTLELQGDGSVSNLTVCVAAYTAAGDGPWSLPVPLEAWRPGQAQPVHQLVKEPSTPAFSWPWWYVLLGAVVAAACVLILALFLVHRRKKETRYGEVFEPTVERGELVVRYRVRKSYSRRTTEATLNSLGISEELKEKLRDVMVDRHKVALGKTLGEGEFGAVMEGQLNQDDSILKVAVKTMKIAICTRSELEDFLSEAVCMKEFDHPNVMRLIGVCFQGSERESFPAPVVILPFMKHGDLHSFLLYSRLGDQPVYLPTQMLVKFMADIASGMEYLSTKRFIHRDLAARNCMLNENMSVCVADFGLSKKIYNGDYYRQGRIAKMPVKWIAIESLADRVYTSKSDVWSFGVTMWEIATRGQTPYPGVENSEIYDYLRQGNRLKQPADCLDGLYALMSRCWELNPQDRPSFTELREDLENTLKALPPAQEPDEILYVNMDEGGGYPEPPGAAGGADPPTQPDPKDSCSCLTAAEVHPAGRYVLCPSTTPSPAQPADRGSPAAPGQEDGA

## Cc1ccc(-c2cnc([C@@]3(O)CC[C@H](C(=O)O)C(C)(C)C3)s2)cc1Nc1cccc(C(F)(F)F)n1 [MRL-SYKi-NC]
[1]
  residual activity: 67.1%
[2]
  residual activity: 100%
[3]
  inhibition: 15.7%
[4]
  residual activity: 74.6%
[5]
  residual activity: 100%
[6]
  residual activity: 82.4%
[7]
  residual activity: 88.3%
[8]
  residual activity: 100%
[9]
  residual activity: 97.5%
[10]
  residual activity: 88.9%
[11]
  residual activity: 100%
[12]
  residual activity: 100%
[13]
  residual activity: 72.5%
[14]
  residual activity: 69.2%
[15]
  residual activity: 100%
[16]
  residual activity: 100%
[17]
  residual activity: 89.7%
[18]
  inhibition: 6.26%
[19]
  residual activity: 90.2%
[20]
  residual activity: 97.3%
[21]
  residual activity: 100%
[22]
  inhibition: 19%
[23]
  residual activity: 70.1%
[24]
  residual activity: 85.3%
[25]
  residual activity: 56.5%
[26]
  residual activity: 98.1%
[27]
  residual activity: 81.2%
[28]
  residual activity: 99.3%
[29]
  inhibition: 8.33%
[30]
  residual activity: 74.7%
[31]
  residual activity: 70.8%
[32]
  inhibition: 23%
[33]
  residual activity: 100%
[34]
  residual activity: 76.6%
[35]
  residual activity: 100%
[36]
  residual activity: 100%
[37]
  residual activity: 94.7%
[38]
  residual activity: 97.7%
[39]
  residual activity: 42%
[40]
  residual activity: 94.3%
[41]
  residual activity: 78%
[42]
  residual activity: 100%
[43]
  inhibition: 46.4%
[44]
  residual activity: 100%

## Cc1cc(Nc2nccc(C)n2)cc(-c2cnc([C@@]3(O)CC[C@H](C(=O)O)C(C)(C)C3)s2)c1 [MRL-SYKi]
[1]
  residual activity: 100%
[2]
  residual activity: 100%
[3]
  inhibition: 3.34%
[4]
  residual activity: 100%
[5]
  residual activity: 83.9%
[6]
  residual activity: 100%
[7]
  residual activity: 87.3%
[8]
  residual activity: 100%
[9]
  residual activity: 59.1%
[10]
  residual activity: 100%
[11]
  residual activity: 100%
[12]
  residual activity: 100%
[13]
  residual activity: 100%
[14]
  residual activity: 100%
[15]
  residual activity: 83.6%
[16]
  residual activity: 97.9%
[17]
  residual activity: 100%
[18]
  inhibition: -7.4%
[19]
  residual activity: 99.9%
[20]
  residual activity: 53.1%
[21]
  residual activity: 100%
[22]
  inhibition: 25.9%
[23]
  residual activity: 100%
[24]
  residual activity: 85.9%
[25]
  residual activity: 100%
[26]
  residual activity: 100%
[27]
  residual activity: 88.6%
[28]
  residual activity: 66.9%
[29]
  inhibition: 17.3%
[30]
  residual activity: 72.7%
[31]
  residual activity: 100%
[32]
  inhibition: 8.6%
[33]
  residual activity: 100%
[34]
  residual activity: 75.3%
[35]
  residual activity: 74.2%
[36]
  residual activity: 87.2%
[37]
  residual activity: 100%
[38]
  residual activity: 100%
[39]
  residual activity: 60.9%
[40]
  residual activity: 89.6%
[41]
  residual activity: 100%
[42]
  residual activity: 97.5%
[43]
  inhibition: 50.4%
[44]
  residual activity: 100%
